# In patent US20030109468A1, “Novel compounds that enhance dimerization of the subunits of HIV-1 reverse transcriptase having mutations associated with resistance to nonnucleoside reverse transcriptase inhibitors” (priority 2001, published 2003):
# Entries after “also recorded” stand apart in the source; their conditions may differ. Read-outs that look alike come from different tables or passages of the source.
# Tests used:
# [1] = target: T1, p66-His and GST-p51 (Human immunodeficiency virus type 1 group M subtype B, UniProt P04585); format: binding, HIV-1
# T1 construct: p66 corresponds to codons 1-560 and p51 corresponds to codons 1-440 in the RT gene; made in house; host or cells: E. coli M15 (p66-His) and BL21 (GST-p51), unpurified lysates
# Description: Plasmids expressing wild-type and p66 mutants with a histidine tag at the C-terminus (p66-His) were constructed by cloning the p66 coding region into the SphI -BglII site of pQE-70 (Qiagen, Chatsworth, Calif.). […] Glutathione S-transferase tagged p51 (GST-p51) was prepared by subcloning the BamHI-SalI fragment from p51HXGADNOT into pGEX5X-3 (Amersham Pharmacia). Cells were induced and then lysed by the addition of 1 mg/ml of lysozyme to 1 ml of lysis buffer [50 mM sodium phosphate buffer (pH 7.8), 500 mM NaCl, 0.5% Nonidet P-40, 5 mM DTT, and 1 μg/ml each of pepstatin A, aprotinin and leupeptin] and clarified. Lysates were combined and incubated for 16 hrs at 4° C. The heterodimer was captured on Glutathione Sepharose 4B beads and unbound subunits were removed by washing with lysis buffer. Heterodimer bound to beads were resolved by SDS/PAGE. For quantification of RT activity, dimers were eluted from beads with 10 mM reduced glutathione in 50 mM Tris (pH 8.0). Samples were assayed for DNA polymerase activity on homopolymeric template-primers for various times, and the activity was determined from the initial slope of the linear phase of the time course.
# [2] = target: T2, lexA87-66 and Gal4AD-51 (p66 and p51 subunits of the HIV-1 RT) (Human immunodeficiency virus type 1 group M subtype B, UniProt P12497); format: cell-based
# T2 construct: p66 corresponds to codons 1-560 and p51 corresponds to codons 1-440 in the RT gene; expressed in transfected cells; host or cells: Saccharomyces cerevisiae CTY10-5d
# Description: Transformation of yeast and the qualitative β-galactosidase (β-gal) colony lift assay were as published (19). Quantification of protein-protein interactions was determined using the β-gal liquid assay performed on permeabilized yeast grown from three independent transformants using orthonitrophenyl-β-D-galactopyranoside as substrate (19).
# (§1) CTY10-5d transformed constructs expressing p66 bait and p51 prey fusions were grown overnight to stationary phase in synthetic complete medium without histidine and leucine and containing 2% glucose (SC-His-Leu). […] Yeast were grown with aeration at 30° C. to OD600=0.5. The equivalent of 1 OD600 unit was pelleted for each treatment and subjected to a quantitative _-gal liquid assay.
# To test the effects of NNRTIs on the association of the RT polypeptides we used a yeast genetic assay that measures RT heterodimerization (22). In this assay yeast expressing the p66 subunit of the HIV-1 RT fused to the C-terminus of lexa 87 (lexA87-66) and the p51 subunit fused to the Gal4AD (Gal4AD-51) constitutively interact, resulting in the activation of the expression from an integrated Lac Z reporter gene. To test for the effects of the NNRTIs on this interaction, 10 drugs representing 7 different NNRTI classes were added to the culture medium during growth of the yeast and β-gal levels were determined.
# [3] = target: T3, p66/p51 heterodimer (Human immunodeficiency virus type 1 group M subtype B, UniProt P12497); settings: cited from earlier work
# T3 construct: The HIV-1 RT is an asymmetric dimer consisting of p66 and p51 polypeptides
# [4] = system: HIV-1; settings: cited from earlier work
# [5] = target: HIV-1 RT (Human immunodeficiency virus type 1 group M subtype B, UniProt P12497); format: biochemical; settings: exogenous RT assay, results not shown
# [6] = target: T4, lexA87-66W401A and Gal4AD-HA-51W401A (Human immunodeficiency virus type 1 group M subtype B, UniProt P12497, W988A); test: Coimmunoprecipitation of p66 and p51 in yeast lysates, W401A mutant; format: cell-based, HIV-1
# T4 construct: p66 corresponds to codons 1-560 and p51 corresponds to codons 1-440 in the RT gene; expressed in transfected cells; host or cells: Saccharomyces cerevisiae CTY10-5d
# Description: […]; Preparation of protein extracts and immunoprecipitation were as previously described (30) except for the use of anti-HA.11 monoclonal antibodies (clone 16B12; Covance, Princeton, N.J.) and Protein G-PLUS agarose beads (Santa Cruz Biotechnology; Santa Cruz, Calif.). Samples were resolved by SDS-PAGE. The lexA87-66 fusion protein was probed using monoclonal antibodies 7E5 which specifically detects p66 (31).
# To directly test for induced heterodimerization by NNRTIs we subjected lysates from yeast expressing dimerization defective mutants to coimmunoprecipitation. […]. Hemagglutinin (HA) antibodies were used to immunoprecipitate the p51 prey and the presence of any bound p66 bait was then detected using anti-p66 specific antibodies. For coimmunoprecipitation of the p66 bait fusions, samples were divided into two with one part processed without added NNRTI while the other was maintained in drug at the same concentration used during growth of yeast. […] […].
# [7] = target: T5, lexA87-66L234A and Gal4AD-HA-51L234A (Human immunodeficiency virus type 1 group M subtype B, UniProt P04585, L821A); format: cell-based, HIV-1; settings: yeast grown with efavirenz 1.6 μM or UC781 16 μM, compared to no drug
# T5 construct: p66 corresponds to codons 1-560 and p51 corresponds to codons 1-440 in the RT gene; expressed in transfected cells; host or cells: Saccharomyces cerevisiae CTY10-5d
# Description: Samples were resolved by SDS-PAGE.
# Hemagglutinin (HA) antibodies were used to immunoprecipitate the p51 prey and the presence of any bound p66 bait was then detected using anti-p66 specific antibodies. For coimmunoprecipitation of the p66 bait fusions, samples were divided into two with one part processed without added NNRTI while the other was maintained in drug at the same concentration used during growth of yeast.
# [8] = target: T6, RT heterodimer (Human immunodeficiency virus type 1 group M subtype B, UniProt P12497); settings: cited from earlier work
# T6 construct: The HIV-1 RT is an asymmetric dimer consisting of p66 and p51 polypeptides
# [9] = target: T7, HIV-1 RT p66 bait and p51 prey fusions with the L234A change (Human immunodeficiency virus type 1 group M subtype B, UniProt P04585, L821A); format: cell-based; settings: L234A in one or both subunits
# T7 construct: p66 corresponds to codons 1-560 and p51 corresponds to codons 1-440 in the RT gene; expressed in transfected cells; host or cells: Saccharomyces cerevisiae CTY10-5d
# Description: as §1
# [10] = target: T8, HIV-1 RT p66 bait and p51 prey fusions with the W401A change (Human immunodeficiency virus type 1 group M subtype B, UniProt P12497, W988A); format: cell-based; settings: W401A in one or both subunits
# T8 construct: p66 corresponds to codons 1-560 and p51 corresponds to codons 1-440 in the RT gene; expressed in transfected cells; host or cells: Saccharomyces cerevisiae CTY10-5d
# Description: as §1
# [11] = system: lexA87 and Gal4AD; test: Y2H specificity control, empty vectors pSH21 and pGADNOT; format: cell-based; settings: serial dilutions, even in the presence of 15 μM of drug
# Description: (§2) The specificity of the β-gal enhancement by NNRTIs was investigated. […].
# [12] = target: lexA87-66Y181C and wild type Gal4AD-51 (Human immunodeficiency virus type 1 group M subtype B, UniProt P12497, Y768C); format: cell-based, HIV-1; settings: yeast grown in the presence of drug
# Description: as §1
# [13] = target: p66W401A-His and GST-p51W401A (Human immunodeficiency virus type 1 group M subtype B, UniProt P12497, W988A); test: In vitro heterodimerization in bacterial lysates, W401A mutant
# Description: The heterodimerization of bacterially expressed wild-type p66-His and GST-p51 (or mutants) was assessed in bacterial lysates as described previously (22). […] Lysates were washed 4 times with lysis buffer using a centricon-YM-50 filter device (Millipore Corporation, Bedford, Mass.) to remove unbound drug. 5 μg of the corresponding RT subunit was applied to the washed lysates (in 500 μl) and incubated for 1.5 hr at 40C. Heterodimers were captured onto beads (22), resolved by SDS/PAGE and detected using RT antibodies (monoclonal antibody 5B2) (31).
# [14] = system: moloney murine leukemia virus reverse transcriptase with elongation factor release factor 1 and other unrelated pairs; test: Y2H specificity control, unrelated protein-protein interaction pairs; format: cell-based
# Description: as §2
# [15] = target: HIV-1 RT with Y181C mutation in the p66 subunit (Human immunodeficiency virus type 1 group M subtype B, UniProt P12497, Y768C); settings: cited from earlier work
# [16] = yeast expressing lexA87-66 and Gal4AD-51 grown with drug
# [17] = bacterial lysates, overnight at 4° C.
compound,measurement,setting,value
"2′,5′-bis-O-(tert-butylidimethylsilyl) -3′-spiro-5″-4″-amino-1″,2″-oxothiole-2″,2″-dioxide)]-b-D- pentofuranosyl [TSAO]",effect on heterodimerization in in vitro binding assays,"[1]; preliminary tests, data not shown",reduce heterodimerization
same,inhibition of β-gal activity in the Y2H system,"[2]; preliminary tests, data not shown, uptake by yeast not ruled in",no inhibition of β-gal activity
same,destabilization of the p66/p51 heterodimer,[3],destabilization of the p66/p51 heterodimer; also recorded: destabilize the p66/p51 heterodimer
"COc1ccc2c(c1)N(C(=O)OC(C)C)[C@@H](CSC)C(=S)N2 [HBY 097, (S)-4-isopropoxycarbonyl-6-methoxy-3-(methylthiomethyl)-3,4-dihydroquinoxaline-2(1H)-thione]",inhibition of HIV-1 replication in vitro,[4],extremely potent inhibitors
same,"enhancement of β-gal activity, in words / relative potency",[2]; [16],most potent
CCn1c(=O)c(C)cn([C@@H]2O[C@H](CO[Si](C)(C)C(C)(C)C)C3(OS(=O)(=O)C=C3N)[C@H]2O[Si](C)(C)C(C)(C)C)c1=O (stereo partly drawn) [TSAOe^3T],destabilization of the p66/p51 heterodimer,[3],more modest destabilization only detectable in the presence of denaturants
Cc1occc1C(=S)Nc1ccc(Cl)c(/C=N/OC(C)(C)C)c1 [UC10],"enhancement of dimerization of GST-p51 and p66-His in vitro, in words",[1]; [17],poor dimerization inducers
CC(C)OC(=O)c1cc(NC(=S)OC(C)C)ccc1Cl [UC38],"concentration of drug that mediates a 5-fold increase in β-gal activity, rank","[2]; Y2H assay, results not shown",least active
same,"RT inhibitory activity (50% inhibitory concentration), rank",[5],least active
"CC(C)=CCOc1cc(NC(=S)c2ccoc2C)ccc1Cl [UC781, N-[4-chloro-3-(3-methyl-2-butenyloxy)phenyl]-2-methyl-3-furancarbothioamide]","enhancement of dimerization of GST-p51 and p66-His in vitro, in words",[1]; [17],poor dimerization inducers
same,"p66 bait coimmunoprecipitated with p51 prey, W401A","[6]; yeast grown with efavirenz 1.6 μM or UC781 16 μM, compared to no drug",heterodimer formation
same,"p66 bait coimmunoprecipitated with p51 prey, L234A",[7],not for the L234A mutant
same,binding to the RT heterodimer,[8],bind very tightly
same,dissociation rates (Koff),[8],very slow dissociation rates
same,"enhancement of β-gal activity, L234A mutant, in words",[9],no enhancement
same,"enhancement of β-gal activity, W401A mutant, in words",[10],could also enhance the β-gal activity
same,inhibition of HIV-1 replication in vitro,[4],extremely potent inhibitors
same,"enhancement of β-gal activity, in words / relative potency",[2]; [16],second most potent drug
"CC(C)Nc1cccnc1N1CCN(C(=O)c2cc3cc(NS(C)(=O)=O)ccc3[nH]2)CC1 [delavirdine, piperazine, 1-[3-[(1-methyl-ethyl)amino]-2-pyridinyl]-4-[[5-[(methysulfonyl)amino]-1H-indol-2-yl]carbonyl]-, monomethanesulfonate]","enhancement of dimerization of GST-p51 and p66-His in vitro, in words",[1],inactive in vitro
same,"enhancement of β-gal activity, in words / relative potency",[2],devoid of P-gal enhancing activity
"O=C1Nc2ccc(Cl)cc2[C@@](C#CC2CC2)(C(F)(F)F)O1 [efavirenz, (S)6-chloro-4(cyclopropylethynyl)-1,4-dihydro-4-(trifluoromethyl)-2H-3,1-benzoxazin-2-one]","increase in β-gal activity, empty vectors",[11],no increase in β-gal activity
same,β-gal enhancement with Y181C in the p66 bait,[12],significant level of β-gal enhancement was still retained
same,"heterodimer in lysates of yeast grown without drug, drug added during coimmunoprecipitation, W401A",[6],significantly more heterodimer present
same,"p66 bait coimmunoprecipitated with p51 prey, W401A",[6],clear increase
same,binding to the RT heterodimer,[8],bind very tightly
same,"enhancement of β-gal activity, W401A mutant, in words",[10],dramatic increase in β-gal activity
same,"molar excess of drug giving a significant increase in dimer formation, W401A",[13],10 fold molar excess
same,effect on β-gal activity of unrelated protein-protein interaction pairs,[14],no enhancement or inhibition of β-gal activity
"Cc1ccnc2c1NC(=O)c1cccnc1N2C1CC1 [nevirapine, 11-cyclopropyl-5,11,-dihydro-4-methyl-6H-dipyrido[3,2-b:2′3′-][1,4] diazepin-6-one]",β-gal enhancement with Y181C in the p66 bait,[12],totally negated the enhancement effect
same,increase in resistance conferred by Y181C,[15],> 100 fold
